In patent US20240076284A1, “NEW COMPOUNDS AND METHODS” (BENEVOLENTAI BIO LIMITED, priority 2020, published 2024):

How the values were obtained:
MDR1 = biological target: T1, MDR1 (Homo sapiens, UniProt P08183); assay: MDR1-MDCK effective efflux ratio; type: in vitro ADME; details: MDR1-MDCK relative to wild-type MDCK, 1 μM, 60 minutes, pH 7.4
T1 construct: expressed in transfected cells; host or cells: MDCK (canine kidney) cells
Protocol: (§1) Wild-type MDCK, MDR1-MDCK and BCRP-MDCK cells were seeded into 24 well Transwell plates and cultured for 3 days to form monolayers. Test compound were prepared at 1 μM in Hanks' Balanced Salt Solution containing 25 mM HEPES and loaded into the donor compartments of Transwell plates bearing the cell monolayers (pH 7.4 for both donor and receiver compartments). Lucifer Yellow was added to the apical buffer in all wells to assess integrity of the cell monolayer. Duplicate wells were prepared and incubated at 37° C. in a CO2 incubator. Samples were removed at time zero and 60 minutes and test compound analysed by LC-MS/MS. Concentrations of Lucifer Yellow in the samples was measured using a fluorescence plate reader. The apparent permeability (Papp) values of test compound was determined for both the apical to basal (A>B) and basal to apical (B>A) permeation and the efflux ratio (B>A: A>B) determined in each cell line. The effective efflux ratio was determined from the ratio of either MDR1-MDCK cells or BCRP-MDCK cells relative to the ratio observed in wild-type cells. A higher value represent a better substrate for the efflux mechanism, which is less preferable.

[1] = biological target: T2, Ba/F3 cells expressing BCR-ABL (Homo sapiens, UniProt P00519); assay: Ba/F3 CellTiter-Glo Assay; type: cell-based; details: 48 h incubation, CellTiter-Glo luminescence
T2 construct: BCR (fusion partner, N-terminal portion of BCR); host or cells: Ba/F3 (murine pro-B cells); the other entry of the earlier key: BCR (P11274, Breakpoint cluster region protein)
T2 sequence (P00519 229-512 limits assumed): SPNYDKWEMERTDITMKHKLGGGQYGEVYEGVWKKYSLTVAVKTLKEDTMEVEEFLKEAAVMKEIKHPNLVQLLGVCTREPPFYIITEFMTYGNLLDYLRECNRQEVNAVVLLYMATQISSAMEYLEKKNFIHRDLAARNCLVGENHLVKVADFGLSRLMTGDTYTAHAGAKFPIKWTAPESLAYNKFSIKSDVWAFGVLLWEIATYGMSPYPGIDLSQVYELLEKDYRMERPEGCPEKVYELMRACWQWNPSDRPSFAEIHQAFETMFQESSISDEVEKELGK
Protocol: The CellTiter-Glo luminescent cell viability assay is a homogeneous method of determining the number of viable cells in culture based on quantification of the ATP present. Briefly, IL-3 dependent Ba/F3 cells are modified to express BCR-ABL. Activity of the transformed kinase overrides IL-3 dependency for cellular proliferation and survival. […] In this assay Ba/F3 cells expressing BCR-ABL (Advanced Cellular Dynamics) or parental Ba/F3 (control) cells were prepared at 5×10^4/mL in RPMI 1640 containing 10% FBS, 1×Glutamax and 750 ng/mL puromycin. Test compounds were dispensed into 384 well plates using the Tecan D300e at a top final assay concentration of 10 μM with dosing normalised to 0.1% DMSO in […]. 50 μL cells were added to each well of the prepared 384 well plates and the plates spun at 1000 rpm for 1 min prior to incubation at 37° C., 5% CO2 for 48 h. After 48 h 15 μL CellTiter-Glo reagent was added to each well in the plate. Following a 60 min incubation at rt luminescence was read on the Pherastar FS reader.

BCRP = biological target: T3, BCRP (Homo sapiens, UniProt Q9UNQ0); assay: BCRP-MDCK effective efflux ratio; type: in vitro ADME; details: BCRP-MDCK relative to wild-type MDCK, 1 μM, 60 minutes, pH 7.4
T3 construct: expressed in transfected cells; host or cells: MDCK (canine kidney) cells
T3 sequence (Q9UNQ0 1-655): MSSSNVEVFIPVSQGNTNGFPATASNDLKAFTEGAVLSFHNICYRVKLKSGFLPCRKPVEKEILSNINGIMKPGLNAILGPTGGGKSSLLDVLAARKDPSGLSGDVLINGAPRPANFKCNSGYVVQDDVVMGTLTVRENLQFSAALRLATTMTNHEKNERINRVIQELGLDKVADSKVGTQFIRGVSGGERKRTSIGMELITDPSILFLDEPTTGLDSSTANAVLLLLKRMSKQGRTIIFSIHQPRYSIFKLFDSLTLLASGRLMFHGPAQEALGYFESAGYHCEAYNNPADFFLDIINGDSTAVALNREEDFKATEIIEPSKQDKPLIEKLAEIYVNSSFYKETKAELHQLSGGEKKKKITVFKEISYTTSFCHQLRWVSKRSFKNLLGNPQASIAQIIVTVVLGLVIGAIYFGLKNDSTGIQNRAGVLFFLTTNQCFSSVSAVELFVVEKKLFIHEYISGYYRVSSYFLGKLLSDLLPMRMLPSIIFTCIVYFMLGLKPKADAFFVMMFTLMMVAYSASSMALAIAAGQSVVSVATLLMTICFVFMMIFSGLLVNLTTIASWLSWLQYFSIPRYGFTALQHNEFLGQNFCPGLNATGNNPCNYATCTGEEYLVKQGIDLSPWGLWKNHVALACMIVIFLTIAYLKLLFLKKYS
Protocol: as §1

[2] = Human microsomal stability; type: in vitro ADME; details: human microsomes, first value of cell; NADPH, 37° C., up to 40 min
Protocol: (§2) This assay measures the metabolic stability of a given compound and predicts intrinsic liver clearance for various species. A quench plate is initially prepared which contains 400 μL MeCN and 25 ng/mL of internal standard. An aliquot of microsomes is defrosted and subsequently diluted with buffer. A solution of NADPH is made up fresh just before initialising the assay. 445 μL of microsome solution is added to the desired compound (5 μL in 10 μM DMSO) and the resulting solution mixed. The reaction is initiated by the addition of 50 μL of NADPH, a T0 sample is removed before the addition and quenched. The sample plate is kept at a constant 37° C. during the incubation. At pre-determined timepoints (2.5, 5, 10, 20 and 40 min) the incubation is mixed and 22.5 μL samples are transferred to quench plates. After completion of the time course, the quench plates are sealed and shaken for a minimum of 5 min, before centrifugation at 4000 rpm for 5 min. The supernatant is then subsequently transferred to a fresh plate and diluted 1:3 with MeOH/H2O. The plates are then heat sealed and analysed by a Water Acquity UPLC and a Waters TQ-S mass spectrometer. Waters MassLynx software is used for analysis using an MRM transition that has been previously generated from prior optimisation. After acquiring the data on the system the chromatograms are processed and checked using TargetLynx XS software and the raw data output is copied into a microsomal stability workbook. The workbook automatically populates and derives the CLint, t1/2 and scales the CLint values to generate Eh and predicted CL values. The analyst has the final workbook quality checked before the experiment is signed off.

Rat microsomal stability = type: in vitro ADME; details: rat microsomes, second value of cell; NADPH, 37° C., up to 40 min
Protocol: as §2

T1 sequence (P08183 whole entry, species assumed): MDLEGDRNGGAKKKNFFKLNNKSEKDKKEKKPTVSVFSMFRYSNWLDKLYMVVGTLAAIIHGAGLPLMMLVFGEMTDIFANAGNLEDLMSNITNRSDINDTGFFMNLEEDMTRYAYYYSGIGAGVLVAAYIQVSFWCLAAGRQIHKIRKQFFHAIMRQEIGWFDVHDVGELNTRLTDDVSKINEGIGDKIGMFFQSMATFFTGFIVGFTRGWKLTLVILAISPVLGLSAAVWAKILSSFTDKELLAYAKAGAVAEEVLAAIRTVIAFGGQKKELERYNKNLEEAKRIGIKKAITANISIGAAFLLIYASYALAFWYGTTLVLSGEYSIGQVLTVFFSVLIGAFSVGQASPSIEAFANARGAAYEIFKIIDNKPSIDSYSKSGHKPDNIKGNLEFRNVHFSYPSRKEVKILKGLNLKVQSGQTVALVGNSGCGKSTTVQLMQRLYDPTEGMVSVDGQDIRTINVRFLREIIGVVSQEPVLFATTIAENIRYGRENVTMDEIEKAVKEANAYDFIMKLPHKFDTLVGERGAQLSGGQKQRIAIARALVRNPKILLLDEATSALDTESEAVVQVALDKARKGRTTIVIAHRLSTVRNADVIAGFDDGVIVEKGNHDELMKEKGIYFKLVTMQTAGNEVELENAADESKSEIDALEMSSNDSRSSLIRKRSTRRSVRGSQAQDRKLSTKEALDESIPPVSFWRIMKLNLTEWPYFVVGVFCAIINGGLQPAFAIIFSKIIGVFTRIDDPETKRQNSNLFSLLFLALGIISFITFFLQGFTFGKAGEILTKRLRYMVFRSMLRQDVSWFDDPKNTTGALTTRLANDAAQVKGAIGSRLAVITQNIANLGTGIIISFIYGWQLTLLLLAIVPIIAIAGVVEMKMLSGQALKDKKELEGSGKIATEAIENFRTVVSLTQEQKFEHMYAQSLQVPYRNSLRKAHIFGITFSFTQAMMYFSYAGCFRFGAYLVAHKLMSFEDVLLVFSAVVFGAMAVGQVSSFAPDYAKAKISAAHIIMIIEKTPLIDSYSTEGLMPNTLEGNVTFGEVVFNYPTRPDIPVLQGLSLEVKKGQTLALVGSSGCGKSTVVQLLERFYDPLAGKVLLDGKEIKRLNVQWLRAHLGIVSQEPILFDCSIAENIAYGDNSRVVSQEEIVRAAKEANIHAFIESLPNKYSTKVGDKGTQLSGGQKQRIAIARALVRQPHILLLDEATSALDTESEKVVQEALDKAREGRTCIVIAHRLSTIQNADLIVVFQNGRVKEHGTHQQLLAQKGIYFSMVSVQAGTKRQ

| SMILES | MDCK MDR1 EER (MDR1) | IC50 [1] | MDCK BCRP EER (BCRP) | Microsomal stability (human/rat) Eh [2] | Microsomal stability (human/rat) Eh (Rat microsomal stability) |
| --- | --- | --- | --- | --- | --- |
| Cc1ccc(C(=O)Nc2cc(CN3CCCC3)cc(C(F)(F)F)c2)cc1-n1cc(-c2cccnc2)cn1 [Comparative example 1, 4-Methyl-3-[4-(3-pyridyl)pyrazol-1-yl]-N-[3-(pyrrolidin-1-ylmethyl)-5-(trifluoromethyl)phenyl]benzamide, reference compound] |  |  |  | 0.81 | 0.93 |
| Cc1ccc(C(=O)Nc2cc(C(F)(F)F)c(CN3CCN(C)CC3)cn2)cc1-n1cc(-c2cccnc2)cn1 [compound 6, 4-Methyl-N-[5-[(4-methylpiperazin-1-yl)methyl]-4-(trifluoromethyl)-2-pyridyl]-3-[4-(3-pyridyl)pyrazol-1-yl]benzamide, reference compound] | 15.8 |  | 5.0 |  |  |
| Cc1ccc(C(=O)Nc2cc(CN3CCOCC3)cc(C(F)(F)F)c2)cc1-n1cc(-c2cccnc2)cn1 [Comparative example 2, 4-Methyl-N-[3-(morpholinomethyl)-5-(trifluoromethyl)phenyl]-3-[4-(3-pyridyl)pyrazol-1-yl]benzamide, reference compound] | 6.5 |  | 1.8 | 0.96 | 0.99 |
| Cc1ccc(C(=O)Nc2cc(C(F)(F)F)ccn2)cc1-n1ccc(-c2cccnc2)n1 [Comparative example 4, 4-Methyl-3-[3-(3-pyridyl)pyrazol-1-yl]-N-[4-(trifluoromethyl)-2-pyridyl]benzamide, reference compound] |  | 2.71 µM |  |  |  |
| Cc1ccc(C(=O)Nc2cc(C(F)(F)F)cnn2)cc1-n1cc(-c2cccnc2)nn1 [compound 3, 4-Methyl-3-[4-(3-pyridyl)triazol-1-yl]-N-[5-(trifluoromethyl)pyridazin-3-yl]benzamide, reference compound] | 9.8 |  | 8.5 |  |  |
| Cc1ccc(C(=O)Nc2cc(C(F)(F)F)ccn2)cc1-n1cc(-c2cnn(C)c2C)cn1 [Example 4, 3-[4-(1,5-Dimethylpyrazol-4-yl)pyrazol-1-yl]-4-methyl-N-[4-(trifluoromethyl)-2-pyridyl]benzamide] | 1.2 | 0.072 µM | 1.3 | < 0.44 | 0.60 |
| Cc1ccc(C(=O)Nc2cc(C(F)(F)F)cc(C#N)n2)cc1-n1cc(-c2cccnc2)cn1 [Example 10, N-[6-cyano-4-(trifluoromethyl)pyridin-2-yl]-4-methyl-3-[4-(pyridin-3-yl)-1H-pyrazol-1-yl]benzamide] |  | 0.018 µM |  | 0.70 | 0.65 |
| Cc1ccc(C(=O)Nc2ccc(CN3CCN(C)CC3)c(C(F)(F)F)c2)cc1-n1cc(-c2cnc(N)nc2)nn1 [compound 5, 3-[4-(2-aminopyrimidin-5-yl)triazol-1-yl]-4-methyl-N-[4-[(4-methylpiperazin-1-yl)methyl]-3-(trifluoromethyl)phenyl]benzamide, reference compound] | 4.3 |  | 2.1 |  |  |

Continued, values first:

| MDCK MDR1 EER (MDR1) | IC50 [1] | MDCK BCRP EER (BCRP) | Microsomal stability (human/rat) Eh [2] | Microsomal stability (human/rat) Eh (Rat microsomal stability) | SMILES |
| --- | --- | --- | --- | --- | --- |
| 1.2 | 0.032 µM | 0.8 |  |  | Cc1cncc(-c2cnn(-c3cc(C(=O)Nc4cc(C(F)(F)F)ccn4)ccc3C)c2)c1 [Example 7] |
| 2.9 | 0.04 µM | 1.5 | 0.56 | 0.67 | Cc1ccc(C(=O)Nc2cc(C(F)(F)F)cnn2)cc1-n1cc(-c2cccnc2)cn1 [Example 2, 4-Methyl-3-[4-(3-pyridyl)pyrazol-1-yl]-N-[5-(trifluoromethyl)pyridazin-3-yl]benzamide] |
| 1 | 0.022 µM | 1.5 | 0.70 | 0.69 | Cc1ccc(C(=O)Nc2cc(C(F)(F)F)ccn2)cc1-n1cc(-c2cccnc2)cn1 [Example 1, 4-Methyl-3-[4-(3-pyridyl)pyrazol-1-yl]-N-[4-(trifluoromethyl)-2-pyridyl]benzamide] |
|  | 0.083 µM |  |  |  | Cc1ccc(C(=O)Nc2cc(C(F)(F)F)ccn2)cc1-n1cc(-c2cncc(N3CCN(C)CC3)c2)cn1 [Example 6, 4-Methyl-3-[4-[5-(4-methylpiperazin-1-yl)-3-pyridyl]pyrazol-1-yl]-N-[4-(trifluoromethyl)-2-pyridyl]benzamide] |
| 1.6 | 0.029 µM | 1.1 |  |  | Cc1ccc(C(=O)Nc2cc(C(F)(F)F)ccn2)cc1-n1cc(-c2cncc(F)c2)cn1 [Example 8, 3-[4-(5-Fluoropyridin-3-yl)-1H-pyrazol-1-yl]-4-methyl-N-[4-(trifluoromethyl)pyridin-2-yl]benzamide] |
| 1.1 | 0.054 µM | 1.0 |  |  | CNc1ncc(-c2cnn(-c3cc(C(=O)Nc4cc(C(F)(F)F)ccn4)ccc3C)c2)cn1 [Example 5, 4-Methyl-3-[4-[2-(methylamino)pyrimidin-5-yl]pyrazol-1-yl]-N-[4-(trifluoromethyl)-2-pyridyl]benzamide] |
| 1.2 | 0.028 µM | 1.1 |  |  | COc1cncc(-c2cnn(-c3cc(C(=O)Nc4cc(C(F)(F)F)ccn4)ccc3C)c2)c1 [Example 9, 3-[4-(5-methoxypyridin-3-yl)-1H-pyrazol-1-yl]-4-methyl-N-[4-(trifluoromethyl)pyridin-2-yl]benzamide] |
